IC50 data for 19 compounds are collected here from patent US20230093099A1, “COMPOUNDS AND METHODS OF TREATING CANCERS” (CULLGEN (SHANGHAI), INC., priority 2019, published 2023).

A value given as a limit tells only on which side of the number the result lay.

The term IC50 denotes the concentration at which inhibition is half-maximal.

The test relates to RS4;11 cells. Briefly: Cell viability assay (CellTiter-Glo) in RS4;11 cells. In kind it is cell-based. As to conditions: Homo sapiens, 72 h; RS4;11 cells; cell viability, 3 days, CellTiter-Glo; read-out: IC50. As for the experimental part:
Specific exemplary heterobifunctional compounds were first characterized using cell viability assays. RS4;11 ALL cells were treated with bifunctional degraders for three days. The IC50 values ranged from 2 nM to over 10 uM.
MV4;11, RS4;11, Kasumi-1, HEL and other cells were treated with NVP-BSK805, TG101209 or selected degraders for 3 days at indicated concentrations following a 3-fold serial dilution.
HEL, RS4;11, MV4;11, Kasumi-1 and other cells were cultured at 37° C. with 5% CO2 in RPMI 1640 or DMEM Medium supplemented with 10% fetal bovine serum. Cells were authenticated using the short tandem repeat (STR) assays. Mycoplasma test results were negative.
Cells were seeded at a density of 5000 cells per well in 96-well assay plates and treated with test compounds following a 8-point or 12-point 3-fold serial dilution. Three days later, cell viability was determined using the CellTiter-Glo assay kit according to the manufacturer's instructions. The dose-response curves were determined and IC50 values were calculated using the GraphPad Prism software following a nonlinear regression (least squares fit) method.
As for `Cc1cnc(Nc2ccc(N3CCN(CC(=O)NCCOCCOCCOCCOCCC(=O)NC(C(=O)N4C[C@H](O)C[C@H]4C(=O)NCc4ccc(-c5scnc5C)cc4)C(C)(C)C)CC3)cc2)nc1Nc1cccc(S(=O)(=O)NC(C)(C)C)c1` (stereo in doubt) [JA-222, (2S,4R)-1-((S)-20-(tert-butyl)-1-(4-(4-((4-((3-(N-(tert-butyl)sulfamoyl)phenyl)amino)-5-methylpyrimidin-2-yl)amino)phenyl)piperazin-1-yl)-2,18-dioxo-6,9,12,15-tetraoxa-3,19-diazahenicosan-21-oyl)-4-hydroxy-N-(4-(4-methylthiazol-5-yl)benzyl)pyrrolidine-2-carboxamide], the IC50 is over 10 µM.

As for `O=C1CCC(N2C(=O)c3cccc(NCCCCCC(=O)N4CCC(n5cc(-c6cnc7cccc(-c8cc(F)c(CN9CCOCC9)c(F)c8)c7n6)cn5)CC4)c3C2=O)C(=O)N1` (stereo not shown) [JA-001, 4-[[6-[4-[4-[8-[3,5-Difluoro-4-(morpholinomethyl)phenyl]quinoxalin-2-yl]pyrazol-1-yl]-1-piperidyl]-6-oxo-hexyl]amino]-2-(2,6-dioxo-3-piperidyl)isoindoline-1,3-dione], the IC50 amounted to 3.17 µM. As to `O=C1CCC(N2C(=O)c3cccc(NCC(=O)N4CCC(n5cc(-c6cnc7cccc(-c8cc(F)c(CN9CCOCC9)c(F)c8)c7n6)cn5)CC4)c3C2=O)C(=O)N1` (stereo not shown) [JA-002, 4-[[2-[4-[4-[8-[3,5-Difluoro-4-(morpholinomethyl)phenyl]quinoxalin-2-yl]pyrazol-1-yl]-1-piperidyl]-2-oxo-ethyl]amino]-2-(2,6-dioxo-3-piperidyl)isoindoline-1,3-dione], the half-maximal inhibitory concentration (IC50) was found to be 5.44 µM.

In the case of `O=C1CCC(N2C(=O)c3cccc(NCCCCC(=O)N4CCC(n5cc(-c6cnc7cccc(-c8cc(F)c(CN9CCOCC9)c(F)c8)c7n6)cn5)CC4)c3C2=O)C(=O)N1` (stereo not shown) [JA-003, 4-[[5-[4-[4-[8-[3,5-Difluoro-4-(morpholinomethyl)phenyl]quinoxalin-2-yl]pyrazol-1-yl]-1-piperidyl]-5-oxo-pentyl]amino]-2-(2,6-dioxo-3-piperidyl)isoindoline-1,3-dione], the IC50 was 6.59 µM. Turning to `O=C1CCC(N2C(=O)c3cccc(NCCC(=O)N4CCC(n5cc(-c6cnc7cccc(-c8cc(F)c(CN9CCOCC9)c(F)c8)c7n6)cn5)CC4)c3C2=O)C(=O)N1` (stereo not shown) [JA-004, 4-[[3-[4-[4-[8-[3,5-Difluoro-4-(morpholinomethyl)phenyl]quinoxalin-2-yl]pyrazol-1-yl]-1-piperidyl]-3-oxo-propyl]amino]-2-(2,6-dioxo-3-piperidyl)isoindoline-1,3-dione], the IC50 stood at 3.35 µM. For `O=C1CCC(N2C(=O)c3cccc(NCCCC(=O)N4CCC(n5cc(-c6cnc7cccc(-c8cc(F)c(CN9CCOCC9)c(F)c8)c7n6)cn5)CC4)c3C2=O)C(=O)N1` (stereo not shown) [JA-005, 4-[[4-[4-[4-[8-[3,5-Difluoro-4-(morpholinomethyl)phenyl]quinoxalin-2-yl]pyrazol-1-yl]-1-piperidyl]-4-oxo-butyl]amino]-2-(2,6-dioxo-3-piperidyl)isoindoline-1,3-dione], the IC50 amounted to 0.51 µM. On to `Cc1cnc(Nc2ccc(N3CCN(C(=O)CNc4cccc5c4C(=O)N(C4CCC(=O)NC4=O)C5=O)CC3)cc2)nc1Nc1cccc(S(=O)(=O)NC(C)(C)C)c1` (stereo not shown) [JA-006, N-(tert-Butyl)-3-((2-((4-(4-((2-(2,6-dioxopiperidin-3-yl)-1,3-dioxoisoindolin-4-yl)glycyl)piperazin-1-yl)phenyl)amino)-5-methylpyrimidin-4-yl)amino)benzenesulfonamide], for which the IC50 is over 10 µM. Consider `Cc1cnc(Nc2ccc(N3CCN(C(=O)CCCCCNc4cccc5c4C(=O)N(C4CCC(=O)NC4=O)C5=O)CC3)cc2)nc1Nc1cccc(S(=O)(=O)NC(C)(C)C)c1` (stereo not shown) [JA-007, N-(tert-Butyl)-3-((2-((4-(4-(6-((2-(2,6-dioxopiperidin-3-yl)-1,3-dioxoisoindolin-4-yl)amino)hexanoyl)piperazin-1-yl)phenyl)amino)-5-methylpyrimidin-4-yl)amino)benzenesulfonamide], for which the IC50 is over 10 µM. For the compound `Cc1cnc(Nc2ccc(N3CCN(C(=O)CCCNc4cccc5c4C(=O)N(C4CCC(=O)NC4=O)C5=O)CC3)cc2)nc1Nc1cccc(S(=O)(=O)NC(C)(C)C)c1` (stereo not shown) [JA-008, N-(tert-Butyl)-3-((2-((4-(4-(4-((2-(2,6-dioxopiperidin-3-yl)-1,3-dioxoisoindolin-4-yl)amino)butanoyl)piperazin-1-yl)phenyl)amino)-5-methylpyrimidin-4-yl)amino)benzenesulfonamide], the IC50 was determined as 1.47 µM. For `Cc1cnc(Nc2ccc(N3CCN(C(=O)CCNc4cccc5c4C(=O)N(C4CCC(=O)NC4=O)C5=O)CC3)cc2)nc1Nc1cccc(S(=O)(=O)NC(C)(C)C)c1` (stereo not shown) [JA-009, N-(tert-Butyl)-3-((2-((4-(4-(3-((2-(2,6-dioxopiperidin-3-yl)-1,3-dioxoisoindolin-4-yl)amino)propanoyl)piperazin-1-yl)phenyl)amino)-5-methylpyrimidin-4-yl)amino)benzenesulfonamide], the IC50 stood at 2.58 µM. On to `CS(=O)(=O)c1ccc(-c2cccc3nc(Nc4ccc(N5CCN(C(=O)CCCNc6cccc7c6C(=O)N(C6CCC(=O)NC6=O)C7=O)CC5)cc4)nn23)cc1` (stereo not shown) [JA-010, 2-(2,6-Dioxopiperidin-3-yl)-4-((4-(4-(4-((5-(4-(methylsulfonyl)phenyl)-[1,2,4]triazolo[1,5-a]pyridin-2-yl)amino)phenyl)piperazin-1-yl)-4-oxobutyl)amino)isoindoline-1,3-dione], for which the IC50 is over 10 µM. For the compound `CS(=O)(=O)c1ccc(-c2cccc3nc(Nc4ccc(N5CCN(C(=O)CCCCNc6cccc7c6C(=O)N(C6CCC(=O)NC6=O)C7=O)CC5)cc4)nn23)cc1` (stereo not shown) [JA-011, 2-(2,6-Dioxo-piperidin-3-yl)-4-[5-(4-{4-[5-(4-methanesulfonyl-phenyl)-[1,2,4]triazolo[1,5-a]pyridin-2-ylamino]-phenyl}-piperazin-1-yl)-5-oxo-pentylamino]-isoindole-1,3-dione], the IC50 turned out to be 3.04 µM. For `CS(=O)(=O)c1ccc(-c2cccc3nc(Nc4ccc(N5CCN(C(=O)CCNc6cccc7c6C(=O)N(C6CCC(=O)NC6=O)C7=O)CC5)cc4)nn23)cc1` (stereo not shown) [JA-012, 2-(2,6-Dioxo-piperidin-3-yl)-4-[3-(4-{4-[5-(4-methanesulfonyl-phenyl)-[1,2,4]triazolo[1,5-a]pyridin-2-ylamino]-phenyl}-piperazin-1-yl)-3-oxo-propylamino]-isoindole-1,3-dione], the IC50 amounted to 4.7 µM. For `CS(=O)(=O)c1ccc(-c2cccc3nc(Nc4ccc(N5CCN(C(=O)CCCCCNc6cccc7c6C(=O)N(C6CCC(=O)NC6=O)C7=O)CC5)cc4)nn23)cc1` (stereo not shown) [JA-013, 2-(2,6-Dioxo-piperidin-3-yl)-4-[6-(4-{4-[5-(4-methanesulfonyl-phenyl)-[1,2,4]triazolo[1,5-a]pyridin-2-ylamino]-phenyl}-piperazin-1-yl)-6-oxo-hexylamino]-isoindole-1,3-dione], the IC50 was over 10 µM.

Regarding `CS(=O)(=O)c1ccc(-c2cccc3nc(Nc4ccc(N5CCN(C(=O)CNc6cccc7c6C(=O)N(C6CCC(=O)NC6=O)C7=O)CC5)cc4)nn23)cc1` (stereo not shown) [JA-014, 2-(2,6-Dioxo-piperidin-3-yl)-4-[2-(4-{4-[5-(4-methanesulfonyl-phenyl)-[1,2,4]triazolo[1,5-a]pyridin-2-ylamino]-phenyl}-piperazin-1-yl)-2-oxo-ethylamino]-isoindole-1,3-dione], the IC50 came to 3.34 µM. Regarding `Cc1cnc(Nc2ccc(N3CCN(C(=O)CCCCCCNc4cccc5c4C(=O)N(C4CCC(=O)NC4=O)C5=O)CC3)cc2)nc1Nc1cccc(S(=O)(=O)NC(C)(C)C)c1` (stereo not shown) [JA-015, N-(tert-Butyl)-3-((2-((4-(4-(7-((2-(2,6-dioxopiperidin-3-yl)-1,3-dioxoisoindolin-4-yl)amino)heptanoyl)piperazin-1-yl)phenyl)amino)-5-methylpyrimidin-4-yl)amino)benzenesulfonamide], the IC50 is over 10 µM. As for `Cc1cnc(Nc2ccc(N3CCN(C(=O)CCCCCCCNc4cccc5c4C(=O)N(C4CCC(=O)NC4=O)C5=O)CC3)cc2)nc1Nc1cccc(S(=O)(=O)NC(C)(C)C)c1` (stereo not shown) [JA-016, N-(tert-Butyl)-3-((2-((4-(4-(8-((2-(2,6-dioxopiperidin-3-yl)-1,3-dioxoisoindolin-4-yl)amino)octanoyl)piperazin-1-yl)phenyl)amino)-5-methylpyrimidin-4-yl)amino)benzenesulfonamide], the IC50 is over 10 µM. As to `Cc1cnc(Nc2ccc(N3CCN(C(=O)CCOCCNc4cccc5c4C(=O)N(C4CCC(=O)NC4=O)C5=O)CC3)cc2)nc1Nc1cccc(S(=O)(=O)NC(C)(C)C)c1` (stereo not shown) [JA-017, N-(tert-Butyl)-3-((2-((4-(4-(3-(2-((2-(2,6-dioxopiperidin-3-yl)-1,3-dioxoisoindolin-4-yl)amino)ethoxy)propanoyl)piperazin-1-yl)phenyl)amino)-5-methylpyrimidin-4-yl)amino)benzenesulfonamide], the IC50 was over 10 µM. On to `Cc1cnc(Nc2ccc(N3CCN(C(=O)CCOCCOCCNc4cccc5c4C(=O)N(C4CCC(=O)NC4=O)C5=O)CC3)cc2)nc1Nc1cccc(S(=O)(=O)NC(C)(C)C)c1` (stereo not shown) [JA-018, N-(tert-Butyl)-3-((2-((4-(4-(3-(2-(2-((2-(2,6-dioxopiperidin-3-yl)-1,3-dioxoisoindolin-4-yl)amino)ethoxy)ethoxy)propanoyl)piperazin-1-yl)phenyl)amino)-5-methylpyrimidin-4-yl)amino)benzenesulfonamide], for which the IC50 was over 10 µM.
